In ChEMBL document CHEMBL1122946, “Folate antagonists. 21. Synthesis and antimalarial properties of 2,4-diamino-6-(benzylamino)pyrido[3,2-d]pyrimidines” (1985):

What was measured:
[1] = test system: Mus musculus; test: Mean survival time against trophozoite induced Plasmodium berghei in mice minus control was evaluated at a dose 640 mg/kg; 9 survived out of 15 animals at 60 days postinjection.; format: functional, organism-based; set-up: dose 640 mg/kg
[2] = test system: Mus musculus; test: Mean survival time against trophozoite induced Plasmodium berghei in mice minus control was evaluated at a dose 80 mg/kg; 1 survived out of 5 animals at 60 days postinjection; format: functional, organism-based; set-up: dose 80 mg/kg
[3] = test system: Mus musculus; test: Mean survival time against trophozoite induced Plasmodium berghei in mice minus control was evaluated at a dose 160 mg/kg; 6 survived out of 15 animals at 60 days postinjection; format: functional, organism-based; set-up: dose 160 mg/kg
[4] = test system: Mus musculus; test: Mean survival time against trophozoite induced Plasmodium berghei in mice minus control was evaluated at a dose 320 mg/kg; 3 survived out of 5 animals at 60 days postinjection; format: functional, organism-based; set-up: dose 320 mg/kg
[5] = test system: Mus musculus; test: Mean survival time against trophozoite induced Plasmodium berghei in mice minus control was evaluated at a dose 40 mg/kg.; format: functional
[6] = test system: Mus musculus; test: Mean survival time against trophozoite induced Plasmodium berghei in mice minus control was evaluated at a dose 20 mg/kg.; format: functional
[7] = test system: Mus musculus; test: Mean survival time against trophozoite induced Plasmodium berghei in mice minus control was evaluated at a dose 5 mg/kg.; format: functional
[8] = test system: Mus musculus; test: Mean survival time against trophozoite induced Plasmodium berghei in mice minus control was evaluated at a dose 640 mg/kg; 1 cured and 2 toxic death; format: functional, organism-based; set-up: dose 640 mg/kg
[9] = test system: Mus musculus; test: Mean survival time against trophozoite induced Plasmodium berghei in mice minus control was evaluated at a dose 160 mg/kg; 5 cured at 60 days postinjection.; format: functional, organism-based; set-up: dose 160 mg/kg
[10] = test system: Mus musculus; test: Mean survival time against trophozoite induced Plasmodium berghei in mice minus control was evaluated at a dose 10 mg/kg.; format: functional
[11] = test system: Mus musculus; test: Mean survival time against trophozoite induced Plasmodium berghei in mice minus control was evaluated at a dose 40 mg/kg; 1 cured at 60 days postinjection.; format: functional, organism-based; set-up: dose 40 mg/kg
[12] = test system: Mus musculus; test: Mean survival time against trophozoite induced Plasmodium berghei in mice minus control was evaluated at a dose 1.25 mg/kg.; format: functional
[13] = test system: Mus musculus; test: Mean survival time against trophozoite induced Plasmodium berghei in mice minus control was evaluated at a dose 2.5 mg/kg.; format: functional
[14] = test system: Mus musculus; test: Mean survival time against trophozoite induced Plasmodium berghei in mice minus control was evaluated at a dose 320 mg/kg; 2 cured and 3 toxic death; format: functional, organism-based; set-up: dose 320 mg/kg
[15] = test system: Mus musculus; test: Mean survival time against trophozoite induced Plasmodium berghei in mice minus control was evaluated at a dose 80 mg/kg; 3 cured at 60 days postinjection.; format: functional, organism-based; set-up: dose 80 mg/kg
[16] = test system: Mus musculus; test: Mean survival time against trophozoite induced Plasmodium berghei in mice minus control was evaluated at a dose 640 mg/kg.; format: functional
[17] = test system: Mus musculus; test: Mean survival time against trophozoite induced Plasmodium berghei in mice minus control was evaluated at a dose 160 mg/kg.; format: functional
[18] = test system: Mus musculus; test: Mean survival time against trophozoite induced Plasmodium berghei in mice minus control was evaluated at a dose 640 mg/kg; 10 survived out of 10 animals at 60 days postinjection.; format: functional, organism-based; set-up: dose 640 mg/kg
[19] = test system: Mus musculus; test: Mean survival time against trophozoite induced Plasmodium berghei in mice minus control was evaluated at a dose 80 mg/kg; 5 survived out of 5 animals at 60 days postinjection.; format: functional, organism-based; set-up: dose 80 mg/kg
[20] = test system: Mus musculus; test: Mean survival time against trophozoite induced Plasmodium berghei in mice minus control was evaluated at a dose 160 mg/kg; 10 survived out of 10 animals at 60 days postinjection.; format: functional, organism-based; set-up: dose 160 mg/kg
[21] = test system: Mus musculus; test: Mean survival time against trophozoite induced Plasmodium berghei in mice minus control was evaluated at a dose 40 mg/kg; 6 survived out of 15 animals at 60 days postinjection.; format: functional, organism-based; set-up: dose 40 mg/kg
[22] = test system: Mus musculus; test: Mean survival time against trophozoite induced Plasmodium berghei in mice minus control was evaluated at a dose 320 mg/kg; 5 survived out of 10 animals at 60 days postinjection.; format: functional, organism-based; set-up: dose 320 mg/kg
[23] = test system: Mus musculus; test: Mean survival time against trophozoite induced Plasmodium berghei in mice minus control was evaluated at a dose 20 mg/kg; 4 survived out of 10 animals at 60 days postinjection.; format: functional, organism-based; set-up: dose 20 mg/kg
[24] = test system: Mus musculus; test: Mean survival time against trophozoite induced Plasmodium berghei in mice minus control was evaluated at a dose 640 mg/kg; 7 survived out of 10 animals at 60 days postinjection.; format: functional, organism-based; set-up: dose 640 mg/kg
[25] = test system: Mus musculus; test: Mean survival time against trophozoite induced Plasmodium berghei in mice minus control was evaluated at a dose 80 mg/kg.; format: functional
[26] = test system: Mus musculus; test: Mean survival time against trophozoite induced Plasmodium berghei in mice minus control was evaluated at a dose 160 mg/kg; 4 survived out of 10 animals at 60 days postinjection.; format: functional, organism-based; set-up: dose 160 mg/kg
[27] = test system: Mus musculus; test: Mean survival time against trophozoite induced Plasmodium berghei in mice minus control was evaluated at a dose 320 mg/kg; 2 survived out of 5 animals at 60 days postinjection.; format: functional, organism-based; set-up: dose 320 mg/kg
[28] = test system: Mus musculus; test: Mean survival time against trophozoite induced Plasmodium berghei in mice minus control was evaluated at a dose 640 mg/kg; 5 survived out of 5 animals at 60 days postinjection.; format: functional, organism-based; set-up: dose 640 mg/kg
[29] = test system: Mus musculus; test: Mean survival time against trophozoite induced Plasmodium berghei in mice minus control was evaluated at a dose 80 mg/kg; 10 survived out of 10 animals at 60 days postinjection.; format: functional, organism-based; set-up: dose 80 mg/kg
[30] = test system: Mus musculus; test: Mean survival time against trophozoite induced Plasmodium berghei in mice minus control was evaluated at a dose 40 mg/kg; 4 survived out of 10 animals at 60 days postinjection.; format: functional, organism-based; set-up: dose 40 mg/kg
[31] = test system: Mus musculus; test: Mean survival time against trophozoite induced Plasmodium berghei in mice minus control was evaluated at a dose 320 mg/kg; 10 survived out of 10 animals at 60 days postinjection.; format: functional, organism-based; set-up: dose 320 mg/kg
[32] = test system: Mus musculus; test: Mean survival time against trophozoite induced Plasmodium berghei in mice minus control was evaluated at a dose 40 mg/kg; 4 survived out of 10 animals at 60 days postinjection; format: functional, organism-based; set-up: dose 40 mg/kg
[33] = test system: Mus musculus; test: Mean survival time against trophozoite induced Plasmodium berghei in mice minus control was evaluated at a dose 640 mg/kg; 10 toxic death occurred out of 10 animals on days 2-5 after injection; format: functional, organism-based; set-up: dose 640 mg/kg
[34] = test system: Mus musculus; test: Mean survival time against trophozoite induced Plasmodium berghei in mice minus control was evaluated at a dose 80 mg/kg; 5 survived out of 5 animals at 60 days postinjection; format: functional, organism-based; set-up: dose 80 mg/kg
[35] = test system: Mus musculus; test: Mean survival time against trophozoite induced Plasmodium berghei in mice minus control was evaluated at a dose 320 mg/kg; 3 toxic death occurred out of 5 animals on days 2-5 after injection; format: functional, organism-based; set-up: dose 320 mg/kg
[36] = test system: Mus musculus; test: Mean survival time against trophozoite induced Plasmodium berghei in mice minus control was evaluated at a dose 160 mg/kg; 2 toxic death occurred out of 10 animals on days 2-5 after injection; format: functional, organism-based; set-up: dose 160 mg/kg

`CN(Cc1cccc(Br)c1)c1ccc2nc(N)nc(N)c2n1` was tested, and the “Delta MST” value [1] was “Survivals 9/15”, the “Delta MST” value [2] was “Survivals 1/5” and the “Delta MST” value [3] was “Survivals 6/15”. For the same compound, the “Delta MST” value [4] was “Survivals 3/5”, the “Delta MST” value [5] was 9.8 days and the “Delta MST” value [6] was 9.1 days.
`CCc1nc(N)nc(N)c1-c1ccc(Cl)cc1` [PYRIMETHAMINE] was tested, and the “Delta MST” value [7] was 5.3 days, the “Delta MST” value [8] was “Survivals 1 Toxic Deaths 2” and the “Delta MST” value [9] was “Survivals 5”. For the same compound, the “Delta MST” value [10] was 6.1 days, the “Delta MST” value [11] was “Survivals 1” and the “Delta MST” value [12] was 3.1 days. For the same compound, the “Delta MST” value [13] was 4.7 days, the “Delta MST” value [6] was 7.7 days and the “Delta MST” value [14] was “Survivals 2 Toxic deaths 3”. The “Delta MST” value [15] was “Survivals 3”.
For `CC(c1ccc(Cl)c(Cl)c1)N(C)c1ccc2nc(N)nc(N)c2n1` (stereo not drawn), the “Delta MST” value [16] was 3.9 days, the “Delta MST” value [17] was 2.3 days and the “Delta MST” value [5] was 1.7 days.
With `Nc1nc(N)c2nc(N(C=O)Cc3ccc(Cl)c(Cl)c3)ccc2n1` the “Delta MST” value [7] was 14.1 days, the “Delta MST” value [18] was “Survivals 10/10” and the “Delta MST” value [19] was “Survivals 5/5”. For the same compound, the “Delta MST” value [20] was “Survivals 10/10”, the “Delta MST” value [21] was “Survivals 6/15” and the “Delta MST” value [10] was 16.3 days. For the same compound, the “Delta MST” value [22] was “Survivals 5/10”, the “Delta MST” value [12] was 1.9 days and the “Delta MST” value [13] was 5.3 days. The “Delta MST” value [23] was “Survivals 4/10”.
For `Nc1nc(N)c2nc(N3CCCCC3Cc3ccc(Cl)cc3)ccc2n1` (stereo not drawn), the “Delta MST” value [24] was “Survivals 7/10”, the “Delta MST” value [25] was 9.1 days and the “Delta MST” value [26] was “Survivals 4/10”. For the same compound, the “Delta MST” value [27] was “Survivals 2/5”, the “Delta MST” value [5] was 5.1 days and the “Delta MST” value [6] was 2.9 days.
`Nc1nc(N)c2cc(N(C=O)Cc3ccc(Cl)c(Cl)c3)ccc2n1` was tested, and the “Delta MST” value [28] was “Survivals 5/5”, the “Delta MST” value [29] was “Survivals 10/10” and the “Delta MST” value [20] was “Survivals 10/10”. The “Delta MST” value [10] was 4.3 days, the “Delta MST” value [30] was “Survivals 4/10” and the “Delta MST” value [6] was 8.2 days. For the same compound, the “Delta MST” value [31] was “Survivals 10/10”.
For `CCN(Cc1ccccc1)c1ccc2nc(N)nc(N)c2n1`, the “Delta MST” value [32] was “Survivals 4/10”, the “Delta MST” value [33] was “Toxic Deaths 10/10” and the “Delta MST” value [34] was “Survivals 5/5”. The “Delta MST” value [35] was “Toxic Deaths 3/5”, the “Delta MST” value [36] was “Toxic Deaths 2/10” and the “Delta MST” value [6] was 9.7 days.
